Results reported in publication doi:10.1101/2023.07.11.548539v1, “A side-by-side comparison of peptide-delivered antisense antibiotics employing different nucleotide mimics” (bioRxiv, 2023).
Oligonucleotides are written 5' to 3', each unit as a sugar letter and its base; * is a phosphorothioate linkage, no mark a phosphodiester; rarer units and linkages stand in square brackets, end groups in braces. Plain capitals give the bases only. d = 2'-deoxy (DNA)

Test system: acpP::gfp reporter transcript
Experiment: In vitro translation (PURExpress) and anti-GFP western blot
Type: biochemical, Salmonella enterica
Set-up: key to Inhibition of translation in vitro: -: Effect strength is represented by additional (+) signs.; Effect strength is represented by additional (+) signs.; ++: Effect strength is represented by additional (+) signs.; +++: Effect strength is represented by additional (+) signs
Conditions: unconjugated ASO; for GFP Expression (%): RNA 100 nM, 2 h 37 °C, relative to water control; for Inhibition of translation in vitro: summary grade; for Inhibition of in vitro translation of acpP::gfp (in words): western blot of AcpP-GFP fusion protein
From the text: For the generation of target RNA::gfp fusion constructs, we used a previously established protocol ([31]) and the oligonucleotides JVO-19760/JVO-19761 (Supplementary Table 1) to amplify the genomic region spanning nucleotides –40 to + 51 relative to the translational start codon of acpP. The sense oligonucleotide was fused to a T7 promoter sequence for subsequent transcription of the final fusion construct in vitro. The antisense oligonucleotide contained a 30 nt overlapping region with gfp for subsequent fusion PCR with full length gfp (pXG-10; JVO-19762/JVO-19763) (Supplementary Table 1). The PCR products were purified with NucleoSpin Gel and PCR Clean-up (Macherey-Nagel) according to the manufacturer’s instructions and DNA concentration was quantified with a NanoDrop spectrophotometer (A260 nm).
PCR products were used for T7 RNA polymerase-driven transcription in vitro using the MEGAscript T7 kit (Ambion/Thermo Scientific), according to the manufacturer’s instructions and analogous to our previous publication ([31]). The concentration of the RNA solution was quantified with Qubit (Fisher Scientific) and the expected product size and RNA integrity was verified on a 6% PAA, 7 M urea gel.
For in vitro translation of target RNA::gfp fusion constructs, the PURExpress® In Vitro Protein Synthesis Kit (New England Biolabs, E6800L) was used as described previously ([31]). Briefly, the final volume of each in vitro translation reaction was set to 10 µL. 1µL of different concentrations of ASOs ranging from 10 µM to 0.625 µM were added to 1 µL of in vitro transcribed heat-denatured RNA (1µM) to adjust the final RNA concentration to 100 nM. The mixtures were pre-incubated at 37 °C for 5 min. Then 4 µL of Solution A and 3 µL of Solution B were added to the pre-annealed mixtures. After 2 h at 37 °C, protein samples were denatured in 1x reducing protein loading buffer (62.6 mM Tris–HCl pH 6.8, 2 % SDS, 0.1 mg/mL bromphenol blue, 15.4 mg/mL DTT, 10 % glycerol) at 95 °C for 5 min.
To visualise in vitro translated proteins, samples were separated on SDS-PAA (12 % PAA) gels, with subsequent semi-dry western blot transfer on polyvinylidene fluoride (PVDF) membranes. Membranes were blocked with 10% skim milk (in 1x TBS-T) for 1 h and probed with anti-GFP antibody (1:1,000; Sigma-Aldrich) in 5 % skim milk (in 1x TBS-T) overnight at 4 °C. After washing in 1x TBS-T and incubation with an HRP-conjugated secondary antibody (1:5,000; ThermoScientific) in 1x TBS-T, the membrane was incubated with developing solution kit (Amersham™ ECL Select™ Western Blotting Detection Reagent) and protein levels were detected using an ImageQuant LAS 500 (GE Healthcare Life Sciences). Images were processed and band intensities quantified using ImageJ. Protein bands were normalized to the water control.

Substance | GFP Expression (%) (acpP-RNA : ASO 1 : 0.625) | GFP Expression (%) (acpP-RNA : ASO 1 : 1.25) | GFP Expression (%) (acpP-RNA : ASO 1 : 2.5) | GFP Expression (%) (acpP-RNA : ASO 1 : 5) | GFP Expression (%) (acpP-RNA : ASO 1 : 10) | Inhibition of translation in vitro | Inhibition of in vitro translation of acpP::gfp (in words)
DNA-PTO: 10mer phosphorothioate-modified DNA antisense oligomer, sequence CTCATACTCT, targeting acpP (antisense dC*dT*dC*dA*dT*dA*dC*dT*dC*dT) | 110.7 | 106.7 | 104.6 | 96.5 | 96.3 | - | 
LNA: 10mer 2'-4'-locked RNA antisense oligomer, sequence CTCATACTCT, targeting acpP (all LNA, backbone and methylation of C not given here) | 97.8 | 38.1 | 8.0 | 6.5 | 4.5 |  | substantially blocking in vitro translation of acpP::gfp at 1.25x molar excess
PMO: 10mer phosphorodiamidate morpholino antisense oligomer, sequence CTCATACTCT, targeting acpP (all phosphorodiamidate morpholino (PMO)) | 117.0 | 104.6 | 92.7 | 60.4 | 28.3 |  | 
PNA: 10mer peptide nucleic acid antisense oligomer, sequence CTCATACTCT, targeting acpP (all peptide nucleic acid (PNA)) | 106.8 | 85.9 | 13.0 | 5.7 | 5.5 |  | substantially blocking in vitro translation of acpP::gfp at 1.25x molar excess
RNA-F: 10mer 2'-fluorinated RNA antisense oligomer, sequence CTCATACTCT, targeting acpP (all 2'-fluoro, backbone and T or U not given here) | 96.1 | 97.5 | 85.0 | 69.5 | 58.3 |  | 
RNA-MOE: 10mer 2'-methoxyethylated RNA antisense oligomer, sequence CTCATACTCT, targeting acpP (all 2'-MOE, backbone and methylation of C not given here) | 88.5 |  | 5.1 | 3.3 | 3.4 |  | substantially blocking in vitro translation of acpP::gfp at 1.25x molar excess
RNA-OMe: 10mer 2'-methylated RNA antisense oligomer, sequence CTCATACTCT, targeting acpP (all 2'-O-methyl, backbone and T or U not given here) | 91.2 | 100.6 | 90.2 | 89.0 | 83.7 | + | 
